Assay results as given in publication PMC3705364, “Biochemical and Electrophysiological Characterization of Two Sea Anemone Type 1 Potassium Toxins from a Geographically Distant Population of Bunodosoma caissarum” (Marine Drugs, 2013).
Where a SMILES comes first, the peptide text is derived from it. Bridges are numbered along the chain shown (N, C = ends).

Legend:
[1] = tested on: KV1.1–KV1.6, KV2.1, KV3.1, KV4.2, KV4.3, hERG and Shaker IR; assay: Electrophysiological screening on 12 cloned KV channel isoforms in X. laevis oocytes; type: cell-based, rat, human, insect
Method: The pharmacological profile of BcsTx-1 and -2 were determined on a wide range of twelve KV channels (rKV1.1, rKV1.2, hKV1.3, rKV1.4, rKV1.5, rKV1.6, rKV2.1, rKV3.1, rKV4.2, rKV4.3, hERG and the insect channel Shaker IR; r: rat and h: human). Channels were expressed in X. laevis oocytes, and their currents were recorded by using two-electrode voltage-clamp technique. BcsTx1 (0.5 µM) inhibited rKv1.1, rKv1.2, rKv1.3, rKv1.6 and Shaker IR channels with 44% ± 2%, 100%, 100%, 88% ± 3% and 64% ± 4%, respectively (Figure 6). […] Type 1 toxins, such as BgK and ShK, have been extensively characterized. […] Some of the other type 1 toxins were indirectly assayed by competitive inhibition of the binding of ^125I-dendrotoxins, allowing the conclusion that they will show activity on KV1.1, KV1.2 and/or KV1.6, since dendrotoxins only block the current of these KV channels. […] Thus, it is worth mentioning that our work represents the first electrophysiological characterization of type 1 sea anemone toxin activity on cloned Shaker IR insect channel.
(§1) Stage V–VI of X. laevis oocytes were harvested by partial ovariectomy under anesthesia (3-aminobenzoic acid ethyl ester methanesulfonate salt, 0.5 g/L from Sigma-Aldrich Co., Saint Louis, MO, USA). The oocytes were defolliculated for 2 h by treatment with 2 mg/mL collagenase (Sigma-Aldrich Co., Saint Louis, MO, USA) in Ca^2+ free ND96 solution (in mM: 96 NaCl; 2 KCl; 1 MgCl2; 5 HEPES adjusted pH 7.4). For the expression of KV channels (KV1.1–KV1.6, KV2.1, KV3.1, KV4.2, KV4.3, hERG and the insect channel Shaker IR), the linearized plasmids were transcribed using the T7 or SP6 mMessage-mMachine transcription kit (Ambion, Austin, TX, USA). Oocytes were injected with 50 nL of cRNA at a concentration of 1 ng/nL using a microinjector (Drummond Scientific, Broomall, PA, USA). The oocytes were maintained in a ND96 solution (in mM: 96 NaCl, 2 KCl, 1.8 CaCl2, 2 MgCl2 and 5 HEPES; adjusted pH 7.4), supplemented with 50 µg/mL gentamicin sulfate.
(§2) Two-electrode voltage-clamp recordings were performed at room temperature (18–22 °C) using a Geneclamp 500 amplifier (Molecular Devices, Sunnyvale, CA, USA) controlled by a pClamp data acquisition system (Axon Instruments, Union City, CA, USA). Whole-cell currents from oocytes were recorded from 1 to 3 days after injection. Bath solution was the same ND96 solution described above. Voltage and current electrodes were filled with 3 M KCl. Resistances of both electrodes were kept between 0.8 and 1.0 ΩM. The elicited currents were filtered at 500 Hz using a four-pole lowpass Bessel filter. Leak subtraction was performed using a −P/4 protocol. KV1.1–KV1.6 and Shaker IR currents were evoked by 500 ms depolarizations to 0 mV, followed by a 500 ms pulse to −50 mV, from a holding potential of −90 mV. Current traces of hERG channels were elicited by applying a +40 mV prepulse for 2 s, followed by a step to −120 mV for 2 s. KV3.1, KV 4.2 and KV4.3 currents were elicited by 500 ms pulses to +20 mV from a holding potential of −90 mV. To assess the concentration-response relationships, data were fitted with the Hill equation: y = 100/[1 + (EC50/[toxin])h] (1) where y is the amplitude of the toxin-induced effect, EC50 is the toxin concentration at half maximal efficacy, [toxin] is the toxin concentration and h is the Hill coefficient. In order to investigate the current-voltage relationship, current traces were evoked by 10 mV depolarization steps from a holding potential of −90 mV. The activation curves were fitted with a Boltzmann relationship of the form: 1/(1 + e^[−(V − V^1/2)/^S^]) (2) where V1/2 is the voltage for half-maximal activation and s is the slope factor. The activation kinetics were obtained by mono-exponential fits to the raw current traces.

Shaker IR = biological target: T1, Shaker IR (Drosophila melanogaster, UniProt P08510, DEL6-46); assay: Two-electrode voltage-clamp, X. laevis oocytes expressing Shaker IR; type: cell-based, insect; conditions: mean ± standard error
T1 construct: expressed in transfected cells; host or cells: Xenopus laevis oocytes injected with cRNA
T1 sequence (P08510 with tags, fused parts or gaps DEL6-46): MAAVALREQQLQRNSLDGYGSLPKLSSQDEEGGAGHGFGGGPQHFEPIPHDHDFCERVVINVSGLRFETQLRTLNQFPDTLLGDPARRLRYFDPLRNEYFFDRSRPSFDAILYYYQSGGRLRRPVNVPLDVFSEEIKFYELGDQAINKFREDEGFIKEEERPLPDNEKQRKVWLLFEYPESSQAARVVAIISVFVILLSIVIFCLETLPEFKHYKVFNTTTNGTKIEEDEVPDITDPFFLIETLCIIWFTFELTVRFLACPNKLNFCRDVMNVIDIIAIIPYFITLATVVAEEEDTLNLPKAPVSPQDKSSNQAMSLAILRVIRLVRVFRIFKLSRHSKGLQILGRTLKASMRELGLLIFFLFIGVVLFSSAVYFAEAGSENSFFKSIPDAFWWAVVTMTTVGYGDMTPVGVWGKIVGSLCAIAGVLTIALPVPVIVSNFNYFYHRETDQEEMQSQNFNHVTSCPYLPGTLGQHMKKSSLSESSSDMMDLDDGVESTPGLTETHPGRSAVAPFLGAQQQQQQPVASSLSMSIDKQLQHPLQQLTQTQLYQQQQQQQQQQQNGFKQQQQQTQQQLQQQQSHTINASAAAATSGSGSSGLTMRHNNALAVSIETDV
Method: as §1
as §2, with “The activation curves were fitted with a Boltzmann relationship of the form: 1/(1 + e^[−(V − V^1/2)/^S^]) (2) where V1/2 is the voltage for half-maximal activation and s is the slope factor. The activation kinetics were obtained by mono-exponential fits to the raw current traces.” left out
(§3) Comparison of two sample means was made using a paired Student’s t test (p < 0.05). […] All data were analyzed using Clampfit 10.3 (Molecular Devices, Sunnyvale, CA, USA) and Origin 7.5 software (Origin Lab., Northampton, MA, USA).

rKV1.1 = biological target: T2, rKV1.1 (Rattus norvegicus, UniProt P10499); assay: Two-electrode voltage-clamp, X. laevis oocytes expressing rKV1.1; type: cell-based; conditions: mean ± standard error
T2 construct: expressed in transfected cells; host or cells: Xenopus laevis oocytes injected with cRNA
T2 sequence (P10499 whole entry): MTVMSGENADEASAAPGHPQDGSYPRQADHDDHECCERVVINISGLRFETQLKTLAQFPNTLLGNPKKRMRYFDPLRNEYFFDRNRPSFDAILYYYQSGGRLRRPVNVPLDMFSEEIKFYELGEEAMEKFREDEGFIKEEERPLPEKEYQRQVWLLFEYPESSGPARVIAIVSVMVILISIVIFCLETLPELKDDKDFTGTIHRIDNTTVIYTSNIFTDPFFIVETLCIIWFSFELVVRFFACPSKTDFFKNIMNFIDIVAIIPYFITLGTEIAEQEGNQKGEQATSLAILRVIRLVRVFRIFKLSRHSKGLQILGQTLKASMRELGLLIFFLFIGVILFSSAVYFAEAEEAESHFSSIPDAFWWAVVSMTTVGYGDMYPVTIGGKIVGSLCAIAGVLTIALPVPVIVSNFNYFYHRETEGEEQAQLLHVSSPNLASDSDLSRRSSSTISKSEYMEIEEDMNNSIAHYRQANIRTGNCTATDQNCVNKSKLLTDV
Method: as §1
as §2, with “The activation curves were fitted with a Boltzmann relationship of the form: 1/(1 + e^[−(V − V^1/2)/^S^]) (2) where V1/2 is the voltage for half-maximal activation and s is the slope factor. The activation kinetics were obtained by mono-exponential fits to the raw current traces.” left out
as §3

rKV1.6 = biological target: T3, rKV1.6 (Rattus norvegicus, UniProt P17659); assay: Two-electrode voltage-clamp, X. laevis oocytes expressing rKV1.6; type: cell-based; conditions: mean ± standard error
T3 construct: expressed in transfected cells; host or cells: Xenopus laevis oocytes injected with cRNA
T3 sequence (P17659 whole entry): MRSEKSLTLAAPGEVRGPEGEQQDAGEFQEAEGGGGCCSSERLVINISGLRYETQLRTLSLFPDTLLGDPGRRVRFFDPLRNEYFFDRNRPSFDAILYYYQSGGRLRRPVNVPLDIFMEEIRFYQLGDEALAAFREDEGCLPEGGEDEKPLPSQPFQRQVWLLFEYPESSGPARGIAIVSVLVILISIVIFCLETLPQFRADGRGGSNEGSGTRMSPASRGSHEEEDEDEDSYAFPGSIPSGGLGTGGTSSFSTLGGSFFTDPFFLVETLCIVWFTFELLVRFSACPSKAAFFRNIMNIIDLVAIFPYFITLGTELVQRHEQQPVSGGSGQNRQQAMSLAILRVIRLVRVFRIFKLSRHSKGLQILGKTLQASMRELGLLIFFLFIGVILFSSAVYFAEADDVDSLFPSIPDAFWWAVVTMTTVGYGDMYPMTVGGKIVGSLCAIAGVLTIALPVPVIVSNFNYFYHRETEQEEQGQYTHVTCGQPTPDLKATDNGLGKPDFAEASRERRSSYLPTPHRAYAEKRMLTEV
Method: as §1
as §2, with “The activation curves were fitted with a Boltzmann relationship of the form: 1/(1 + e^[−(V − V^1/2)/^S^]) (2) where V1/2 is the voltage for half-maximal activation and s is the slope factor. The activation kinetics were obtained by mono-exponential fits to the raw current traces.” left out
as §3

hKV1.3 [2] = biological target: T4, hKV1.3 (Homo sapiens, UniProt P22001); assay: Two-electrode voltage-clamp, X. laevis oocytes expressing hKV1.3; type: cell-based; set-up: expressed in transfected cells; host or cells: Xenopus laevis oocytes injected with cRNA
T4 sequence (P22001 whole entry): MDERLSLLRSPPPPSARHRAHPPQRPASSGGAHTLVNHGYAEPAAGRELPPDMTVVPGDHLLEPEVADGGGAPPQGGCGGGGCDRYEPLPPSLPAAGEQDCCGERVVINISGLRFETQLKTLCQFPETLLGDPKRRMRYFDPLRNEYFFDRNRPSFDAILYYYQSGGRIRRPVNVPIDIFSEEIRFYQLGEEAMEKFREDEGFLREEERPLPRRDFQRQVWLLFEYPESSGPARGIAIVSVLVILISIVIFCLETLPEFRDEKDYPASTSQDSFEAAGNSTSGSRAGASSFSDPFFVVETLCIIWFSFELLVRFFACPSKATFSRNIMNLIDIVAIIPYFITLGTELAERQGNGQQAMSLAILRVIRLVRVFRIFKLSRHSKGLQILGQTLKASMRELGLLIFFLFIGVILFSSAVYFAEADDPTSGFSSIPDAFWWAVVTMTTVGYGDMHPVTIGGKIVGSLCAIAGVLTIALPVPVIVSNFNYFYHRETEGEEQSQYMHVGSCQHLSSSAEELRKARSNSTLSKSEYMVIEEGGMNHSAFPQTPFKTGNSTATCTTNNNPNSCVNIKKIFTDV
Method: as §1
as §2, with “The activation curves were fitted with a Boltzmann relationship of the form: 1/(1 + e^[−(V − V^1/2)/^S^]) (2) where V1/2 is the voltage for half-maximal activation and s is the slope factor. The activation kinetics were obtained by mono-exponential fits to the raw current traces.” left out
as §3

rKV1.2 = biological target: T5, rKV1.2 (Rattus norvegicus, UniProt P63142); assay: Two-electrode voltage-clamp, X. laevis oocytes expressing rKV1.2; type: cell-based
T5 construct: expressed in transfected cells; host or cells: Xenopus laevis oocytes injected with cRNA
T5 sequence (P63142 whole entry): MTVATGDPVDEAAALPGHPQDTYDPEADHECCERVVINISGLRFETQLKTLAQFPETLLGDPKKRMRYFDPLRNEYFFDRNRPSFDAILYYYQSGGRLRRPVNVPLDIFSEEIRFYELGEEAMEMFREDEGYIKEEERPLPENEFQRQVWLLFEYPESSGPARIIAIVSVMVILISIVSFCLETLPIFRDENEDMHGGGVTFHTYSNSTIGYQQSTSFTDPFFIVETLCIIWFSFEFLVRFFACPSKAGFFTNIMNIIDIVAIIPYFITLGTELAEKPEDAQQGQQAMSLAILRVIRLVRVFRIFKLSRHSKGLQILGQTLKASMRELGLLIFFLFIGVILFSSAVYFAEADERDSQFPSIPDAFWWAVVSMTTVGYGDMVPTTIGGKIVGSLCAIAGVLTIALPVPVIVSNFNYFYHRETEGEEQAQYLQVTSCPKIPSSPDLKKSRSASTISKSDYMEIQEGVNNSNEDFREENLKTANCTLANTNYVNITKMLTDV
Method: as §1
as §2, with “The activation curves were fitted with a Boltzmann relationship of the form: 1/(1 + e^[−(V − V^1/2)/^S^]) (2) where V1/2 is the voltage for half-maximal activation and s is the slope factor. The activation kinetics were obtained by mono-exponential fits to the raw current traces.” left out
as §3

KV1.2 = conditions: expressed in Xenopus oocytes; cited from earlier work
Method: The pharmacological profile of BcsTx-1 and -2 were determined on a wide range of twelve KV channels (rKV1.1, rKV1.2, hKV1.3, rKV1.4, rKV1.5, rKV1.6, rKV2.1, rKV3.1, rKV4.2, rKV4.3, hERG and the insect channel Shaker IR; r: rat and h: human). Channels were expressed in X. laevis oocytes, and their currents were recorded by using two-electrode voltage-clamp technique. BcsTx1 (0.5 µM) inh ... || In order to characterize the potency and selectivity profile, concentration-response curves were constructed for BcsTx1. […] A concentration-response curve was also constructed to determine the concentration at which BcsTx2 blocked half of the channels.

rKV1.6 (rat) [3] = biological target: rKV1.6 (rat) (UniProt P17659)
Sequence of rKV1.6 (rat) (P17659 whole entry): as the sequence (P17659 whole entry) above

rKV1.1 (rat) [4] = biological target: rKV1.1 (rat) (UniProt P10499)
Sequence of rKV1.1 (rat) (P10499 whole entry): as the sequence (P10499 whole entry) above

rKV1.2 (rat) [5] = biological target: rKV1.2 (rat) (UniProt P63142)
Sequence of rKV1.2 (rat) (P63142 whole entry): as the sequence (P63142 whole entry) above

Shaker IR (insect) [6] = biological target: Shaker IR (insect) (UniProt P08510)
Sequence of Shaker IR (insect) (P08510 whole entry): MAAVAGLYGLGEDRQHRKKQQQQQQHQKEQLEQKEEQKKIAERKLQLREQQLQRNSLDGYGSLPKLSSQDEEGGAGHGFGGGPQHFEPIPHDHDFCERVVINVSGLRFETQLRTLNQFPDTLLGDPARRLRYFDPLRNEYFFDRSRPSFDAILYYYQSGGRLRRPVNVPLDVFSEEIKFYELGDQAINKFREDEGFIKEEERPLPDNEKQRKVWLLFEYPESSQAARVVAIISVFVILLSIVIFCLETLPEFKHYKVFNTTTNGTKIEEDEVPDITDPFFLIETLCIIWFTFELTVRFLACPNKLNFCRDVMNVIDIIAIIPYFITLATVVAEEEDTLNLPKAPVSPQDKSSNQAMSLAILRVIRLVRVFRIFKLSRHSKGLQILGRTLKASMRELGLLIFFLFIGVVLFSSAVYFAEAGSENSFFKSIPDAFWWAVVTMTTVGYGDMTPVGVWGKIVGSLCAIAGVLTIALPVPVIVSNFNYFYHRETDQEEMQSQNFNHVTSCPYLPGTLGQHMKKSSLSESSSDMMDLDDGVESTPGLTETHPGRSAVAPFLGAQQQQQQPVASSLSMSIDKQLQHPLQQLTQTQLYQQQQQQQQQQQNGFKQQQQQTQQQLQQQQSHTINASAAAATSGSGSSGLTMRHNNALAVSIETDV

hKV1.3 [7] = biological target: T4, hKV1.3
rKV1.6 (rat) [8] = biological target: rKV1.6 (rat) (UniProt P17659); remark: listed apart in the source
rKV1.1 (rat) [9] = biological target: rKV1.1 (rat) (UniProt P10499); remark: listed apart in the source
rKV1.2 (rat) [10] = biological target: rKV1.2 (rat) (UniProt P63142); remark: listed apart in the source
Shaker IR (insect) [11] = biological target: Shaker IR (insect) (UniProt P08510); remark: listed apart in the source
hKV1.3 [12] = biological target: T4, hKV1.3; remark: listed apart in the source
[13] = TEVC, 18–22 °C, ND96 pH 7.4, 500 ms depolarizations to 0 mV from −90 mV, Hill fit, n ≥ 3
[14] = TEVC, 18–22 °C, ND96 pH 7.4, 500 ms depolarizations to 0 mV from −90 mV, Hill fit, mean ± standard error, n ≥ 3

## CC[C@H](C)[C@@H]1NC(=O)[C@@H](NC(=O)[C@H](C)N)CSSC[C@@H](C(=O)N[C@@H](Cc2c[nH]cn2)C(=O)O)NC(=O)[C@H](CC(C)C)NC(=O)CNC(=O)[C@@H]2CSSC[C@@H]3NC(=O)[C@H](CO)NC(=O)CNC(=O)CNC(=O)[C@H](CCCCN)NC(=O)[C@H](CCCCN)NC(=O)[C@H](C(C)C)NC(=O)[C@H](Cc4c[nH]cn4)NC(=O)[C@H](CCCCN)NC(=O)[C@H](CSSC[C@H](NC(=O)[C@H](CC(N)=O)NC(=O)[C@H]([C@@H](C)CC)NC(=O)[C@H](CCCNC(=N)N)NC(=O)[C@H](Cc4ccc(O)cc4)NC(=O)[C@H](CCCCN)NC(=O)[C@H](CCC(N)=O)NC(=O)[C@H](CO)NC(=O)[C@H](CC(N)=O)NC(=O)[C@H](CCCCN)NC3=O)C(=O)N[C@@H](C)C(=O)N[C@@H](CCCCN)C(=O)N[C@@H]([C@@H](C)O)C(=O)N2)NC(=O)[C@H]([C@@H](C)O)NC(=O)CNC(=O)[C@H]([C@@H](C)O)NC(=O)[C@@H]2CCCN2C(=O)[C@H](Cc2ccccc2)NC(=O)[C@H](CCCNC(=N)N)NC(=O)[C@H](CC(=O)O)NC1=O [BcsTx1] (H-ACIDRFPTGTCKHVKKGGSCKNSQKYRINCAKTCGLCH-OH; disulfide 2-37, 11-30, 20-34)
[1]; 0.5 µM, 12 KV isoforms
  selectivity among KV channels (in words): selectively blocks KV1.x channels
[1]; summary of IC50 values, compared with BgK and type 2 toxins
  potency class on KV channels (in words): within the nanomolar range
[1]; summary of the electrophysiological characterization
  affinity/potency order among KV channels (in words): high affinity for rKv1.2 over rKv1.6, hKv1.3, Shaker IR and rKv1.1
Shaker IR; 0.5 µM, n ≥ 3, read-out: inhibition of Shaker IR current
  inhibition at 0.5 µM: 64%
Shaker IR; [13]
  IC50: 248 ± 96 nM
rKV1.1; 0.5 µM, n ≥ 3, read-out: inhibition of rKV1.1 current
  inhibition at 0.5 µM: 44%
rKV1.1; [13]
  IC50: 405 ± 20.6 nM
rKV1.6; 0.5 µM, n ≥ 3, read-out: inhibition of rKV1.6 current
  inhibition at 0.5 µM: 88%
rKV1.6; [13]
  IC50: 1.31 ± 0.2 nM
hKV1.3 [2]; 0.5 µM, n ≥ 3, read-out: inhibition of KV1.3 current
  inhibition at 0.5 µM: 100%
hKV1.3 [2]; [14]
  IC50: 74.1 ± 20.2 nM
rKV1.2; 0.5 µM, n ≥ 3, read-out: inhibition of rKV1.2 current
  inhibition at 0.5 µM: 100%
rKV1.2; [14]
  IC50: 0.03 ± 0.006 nM

## AsKs: type 1 toxin from Anemonia viridis / Anemonia sulcata (Swiss-Prot Q9TWG1) (ACKDNFAAATCKHVKENKNCGSQKYATNCAKTCGKC; UniProt Q9TWG1 1-36, looked up)
KV1.2
  block of KV1.2 current (in words): blocker of KV1.2 current

## BcsTx1 (from UniProt C0HJC2 1-38) (peptide)
rKV1.6 (rat) [3]
  IC50 of block of the channel's K+ current, two-electrode voltage clamp on X. laevis oocytes, concentration-response curve: 1.31 nM
rKV1.1 (rat) [4]
  IC50 of block of the channel's K+ current, two-electrode voltage clamp on X. laevis oocytes, concentration-response curve: 405 nM
rKV1.2 (rat) [5]
  IC50 of block of the channel's K+ current, two-electrode voltage clamp on X. laevis oocytes, concentration-response curve: 0.03 nM
Shaker IR (insect) [6]
  IC50 of block of the channel's K+ current, two-electrode voltage clamp on X. laevis oocytes, concentration-response curve: 248 nM
hKV1.3 [7]
  IC50 of block of the channel's K+ current, two-electrode voltage clamp on X. laevis oocytes, concentration-response curve: 74.1 nM
rKV1.6 (rat) [8]
  percent inhibition of the channel's current by 0.5 µM BcsTx1, two-electrode voltage clamp on X. laevis oocytes: 88%
rKV1.1 (rat) [9]
  percent inhibition of the channel's current by 0.5 µM BcsTx1, two-electrode voltage clamp on X. laevis oocytes: 44%
rKV1.2 (rat) [10]
  percent inhibition of the channel's current by 0.5 µM BcsTx1, two-electrode voltage clamp on X. laevis oocytes: 100%
Shaker IR (insect) [11]
  percent inhibition of the channel's current by 0.5 µM BcsTx1, two-electrode voltage clamp on X. laevis oocytes: 64%
hKV1.3 [12]
  percent inhibition of the channel's current by 0.5 µM BcsTx1, two-electrode voltage clamp on X. laevis oocytes: 100%
